Measurements from US20230053540A1, “TREATMENT OF LIVER INJURY” (Massachusetts Institute of Technology, priority 2019, published 2023).

System: hepatocytes
Assay: Seq-Well scRNA-Seq of hepatocytes after APAP overdose (signature scores, DEG vs untreated)
Type: in vivo, mouse
Conditions: cluster A48 (APAP, 48 h)

## CC(=O)Nc1ccc(O)cc1 [APAP, acetaminophen]
  avg_logFC Cyp4a10: 1.157
  avg_logFC Cyp4a14: 1.488
  avg_logFC Dbp: 0.2929
  avg_logFC Dcxr: 0.3518
  avg_logFC Ddb1: 0.3373
  avg_logFC Decr1: 0.5941
  avg_logFC Decr2: 0.4308
  avg_logFC Dhrs4: 0.342
  avg_logFC Ech1: 0.5251
  avg_logFC Echs1: 0.4926
  avg_logFC Eef1d: 0.2745
  avg_logFC Ephx2: 0.4864
  avg_logFC Esrra: 0.2518
  avg_logFC Etfb: 0.3542
  avg_logFC Etnppl: 0.6045
  avg_logFC F2: 0.3767
  avg_logFC F10: 0.3879
  avg_logFC F12: 0.385
  avg_logFC Fah: 0.3039
  avg_logFC Fam195a: 0.3544
  avg_logFC Fcgrt: 0.4314
  avg_logFC Fth1: 0.4342
  avg_logFC G0s2: 0.4232
  avg_logFC Gabarap: 0.4376
  avg_logFC Galk1: 0.2686
  avg_logFC Gcdh: 0.306
  avg_logFC Gchfr: 0.3676
  avg_logFC Ggnbp2: 0.2821
  avg_logFC Glrx5: 0.3308
  avg_logFC Gltscr2: 0.3759
  avg_logFC Gm6484: 0.3759
  avg_logFC Gsta2: 0.2734
  avg_logFC Gsto1: 0.3392
  avg_logFC Gstt2: 0.3234
  avg_logFC Gstt3: 0.3834
  avg_logFC Gys2: 0.4182
  avg_logFC Hdac11: 0.3963
  avg_logFC Herpud1: 0.5965
  avg_logFC Hmgcl: 0.619
  avg_logFC Hmgcs2: 0.8196
  avg_logFC Hrg: 0.436
  avg_logFC Hsd17b10: 0.4452
  avg_logFC Hsd17b13: 0.6427
  avg_logFC Ifnar2: 0.2833
  avg_logFC Khk: 0.5338
  avg_logFC Lamp1: 0.3377
  avg_logFC Lcat: 0.4733
  avg_logFC Lims2: 0.3931
  avg_logFC Lipa: 0.3277
  avg_logFC Mat1a: 0.6585
  avg_logFC Mfsd2a: 0.5827
  avg_logFC Mgll: 0.3192
  avg_logFC Mia3: 0.3374
  avg_logFC Mlycd: 0.4637
  avg_logFC Mrpl43: 0.2692
  avg_logFC Ndrg2: 0.3498
  avg_logFC Ndufb2: 0.407
  avg_logFC Ndufb10: 0.3471
  avg_logFC Ndufs7: 0.2882
  avg_logFC Ninj1: 0.3542
  avg_logFC Nr1i3: 0.5739
  avg_logFC Oaf: 0.5619
  avg_logFC Pabpc1: 0.5116
  avg_logFC Park7: 0.403
  avg_logFC Pbld1: 0.3989
  avg_logFC Pbld2: 0.3619
  avg_logFC Pigr: 0.4224
  avg_logFC Pitpnb: 0.2726
  avg_logFC Plin5: 0.3264
  avg_logFC Pnpla2: 0.3457
  avg_logFC Ppara: 0.3442
  avg_logFC Prodh2: 0.5179
  avg_logFC Rabac1: 0.3343
  avg_logFC Rbp4: 0.5139
  avg_logFC Rdh7: 0.5575
  avg_logFC Reep6: 0.5902
  avg_logFC Retsat: 0.8734
  avg_logFC Rgs16: 0.3803
  avg_logFC Rpl4: 0.3744
  avg_logFC Rpl38: 0.3455
  avg_logFC Scand1: 0.2581
  avg_logFC Sco2: 0.317
  avg_logFC Sdhc: 0.4334
  avg_logFC Sdhd: 0.4849
  avg_logFC Sec14l2: 0.389
  avg_logFC Serpina1d: 0.3563
  avg_logFC Serpinf1: 0.3954
  avg_logFC Serping1: 0.4435
  avg_logFC Sh3glb1: 0.3259
  avg_logFC Shmt1: 0.3827
  avg_logFC Slc10a1: 0.4562
  avg_logFC Slc25a10: 0.4539
  avg_logFC Slc25a20: 0.4208
  avg_logFC Slc25a47: 0.5249
  avg_logFC Slc27a2: 0.3146
  avg_logFC Slc27a5: 0.41
  avg_logFC Slc37a4: 0.4211
  avg_logFC Slc40a1: 0.332
  avg_logFC Slco1a4: 0.5466
  avg_logFC Smlr1: 0.3065
  avg_logFC Snord118: 0.5286
